Experimental findings from patent US9676732B2, “Ethynyl derivatives” (Hoffmann-La Roche Inc., priority 2013, dated 2017) are described below.

By EC50 is commonly meant the concentration that produces a half-maximal response.

The target in the test is human mGlu4 receptor (Homo sapiens (Human), UniProt Q14833). The experiment in a line: Ca2+ mobilization in vitro assay on recombinant human mGlu4 expressed in HEK293 cells (mGlu4 PAM). It counts as cell-based. To be noted: for EC50: HEK293 cells stably expressing human mGlu4, L-AP4 added at EC20, read-out: EC50 (nM) mGlu4PAM; for Eff. (%): maximal response in % of the maximal stimulatory effect obtained with saturating concentrations of L-AP4. As to the method:
Determination of EC50 Values Using a Ca2+ Mobilization In Vitro Assay on Recombinant Human mGlu4 Expressed in HEK293 Cells:
A monoclonal HEK-293 cell line stably transfected with a cDNA encoding for the human mGlu4 receptor was generated; for the work with mGlu4 Positive Allosteric Modulators (PAMs), a cell line with low receptor expression levels and low constitutive receptor activity was selected to allow the differentiation of agonistic versus PAM activity. Cells were cultured according to standard protocols (Freshney, 2000) in Dulbecco's Modified Eagle Medium with high glucose supplemented with 1 mM glutamine, 10% (vol/vol) heat-inactivated bovine calf serum, Penicillin/Streptomycin, 50 μg/ml hygromycin and 15 μg/ml blasticidin (all cell culture reagents and antibiotics from Invitrogen, Basel, Switzerland).
About 24 hrs before an experiment, 5×10^4 cells/well were seeded in poly-D-lysine coated, black/clear-bottomed 96-well plates. The cells were loaded with 2.5 μM Fluo-4AM in loading buffer (1×HBSS, 20 mM HEPES) for 1 hr at 37° C. and washed five times with loading buffer. The cells were transferred into a Functional Drug Screening System 7000 (Hamamatsu, Paris, France), and 11 half logarithmic serial dilutions of test compound at 37° C. were added and the cells were incubated for 10-30 min. with on-line recording of fluorescence. Following this pre-incubation step, the agonist (2S)-2-amino-4-phosphonobutanoic acid (L-AP4) was added to the cells at a concentration corresponding to EC20 with on-line recording of fluorescence; in order to account for day-to-day variations in the responsiveness of cells, the EC20 of L-AP4 was determined immediately ahead of each experiment by recording of a full dose-response curve of L-AP4.
Responses were measured as peak increase in fluorescence minus basal (i.e. fluorescence without addition of L-AP4), normalized to the maximal stimulatory effect obtained with saturating concentrations of L-AP4. Graphs were plotted with the % maximal stimulatory using XLfit, a curve fitting program that iteratively plots the data using Levenburg Marquardt algorithm. The single site competition analysis equation used was y=A+((B−A)/(1+((x/C)D))), where y is the % maximal stimulatory effect, A is the minimum y, B is the maximum y, C is the EC50, x is the log 10 of the concentration of the competing compound and D is the slope of the curve (the Hill Coefficient). From these curves the EC50 (drug concentration at which 50% of the maximal receptor activation was achieved), the Hill coefficient as well as the maximal response in % of the maximal stimulatory effect obtained with saturating concentrations of L-AP4 were calculated (see FIG. 1).
A depression of the signal observed after addition of the EC20 concentration of L-AP4 was indicative of an inhibitory activity of the test compound. • FIG. 1: Illustration of the experimental outline for mGlu4 PAM Ca2+ mobilization screening assay and the determination of EC50 and % Emax values.
For orientation: Calcium flux is commonly read through the fluorescence of an indicator in the cells.

Sequence of human mGlu4 receptor (Q14833 33-912): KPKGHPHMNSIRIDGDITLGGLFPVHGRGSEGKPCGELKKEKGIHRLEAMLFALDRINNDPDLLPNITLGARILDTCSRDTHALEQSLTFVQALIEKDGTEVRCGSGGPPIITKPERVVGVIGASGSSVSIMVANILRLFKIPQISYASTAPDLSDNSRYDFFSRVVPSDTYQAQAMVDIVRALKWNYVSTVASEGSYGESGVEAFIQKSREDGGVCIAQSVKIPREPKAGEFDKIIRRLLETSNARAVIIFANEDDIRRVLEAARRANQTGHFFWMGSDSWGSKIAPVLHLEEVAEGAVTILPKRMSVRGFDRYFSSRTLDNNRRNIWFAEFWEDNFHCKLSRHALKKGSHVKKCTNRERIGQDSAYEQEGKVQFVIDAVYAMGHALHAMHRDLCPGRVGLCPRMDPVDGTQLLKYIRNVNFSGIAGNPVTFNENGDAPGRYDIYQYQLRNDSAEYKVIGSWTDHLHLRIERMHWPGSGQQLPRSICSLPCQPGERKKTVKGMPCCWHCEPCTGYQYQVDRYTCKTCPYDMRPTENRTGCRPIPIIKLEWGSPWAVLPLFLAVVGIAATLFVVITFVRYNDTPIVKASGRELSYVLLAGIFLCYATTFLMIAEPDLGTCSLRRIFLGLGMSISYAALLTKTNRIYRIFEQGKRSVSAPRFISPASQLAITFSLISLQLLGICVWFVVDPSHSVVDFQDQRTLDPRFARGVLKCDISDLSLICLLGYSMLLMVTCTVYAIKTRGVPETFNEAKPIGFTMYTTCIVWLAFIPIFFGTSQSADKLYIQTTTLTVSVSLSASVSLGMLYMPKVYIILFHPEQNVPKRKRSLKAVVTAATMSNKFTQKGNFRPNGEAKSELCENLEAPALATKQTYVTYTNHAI

Take `Cn1c(=O)n(-c2ccc(C#Cc3ccccc3)cc2Cl)c(=O)c2cc(F)ccc21` [Example 18, 3-[2-Chloro-4-(2-phenylethynyl)phenyl]-6-fluoro-1-methyl-quinazoline-2,4-dione]: the EC50 was 148 nM and the “Eff. (%)” value was found to be 86%.

On to `Cc1ccc2c(=O)n(-c3c(F)cc(C#Cc4ccccc4)cc3F)c(=O)n(C)c2c1` [Example 26, 3-[2,6-Difluoro-4-(2-phenylethynyl)phenyl]-1,7-dimethyl-quinazoline-2,4-dione], for which the EC50 came out at 115 nM and the “Eff. (%)” value turned out to be 108%.

In the case of `Cn1cnc2c1c(=O)n(-c1ccc(C#Cc3ccccc3)cc1Cl)c(=O)n2C` [Example 11, 1-[2-Chloro-4-(2-phenylethynyl)phenyl]-3,7-dimethyl-purine-2,6-dione], the EC50 turned out to be 175 nM and the “Eff. (%)” value was 122%.

Turning to `CC(C)n1c(=O)n(-c2ccc(C#Cc3ccccc3)cn2)c(=O)c2ccccc21` [Example 55, 1-Isopropyl-3-[5-(2-phenylethynyl)-2-pyridyl]quinazoline-2,4-dione], the EC50 amounted to 766 nM and the “Eff. (%)” value is given as 123%.

Take `CC(C)n1c(=O)n(-c2ncc(C#Cc3ccccc3)cc2Cl)c(=O)c2ccccc21` [Example 45, 3-[3-Chloro-5-(2-phenylethynyl)-2-pyridyl]-1-isopropyl-quinazoline-2,4-dione]: the EC50 amounted to 137 nM and the “Eff. (%)” value was 92%.

Take `Cn1cc2c(=O)n(-c3c(F)cc(C#Cc4ccccc4)cc3F)c(=O)n(C)c2n1` [Example 62, 5-[2,6-Difluoro-4-(2-phenylethynyl)phenyl]-2,7-dimethyl-pyrazolo[3,4-d]pyrimidine-4,6-dione]: the EC50 stood at 137 nM and the “Eff. (%)” value is recorded as 145%.

Consider `Cn1c(=O)n(-c2ccc(C#Cc3ccccc3)cc2Cl)c(=O)c2ccc(Cl)cc21` [Example 4, 7-Chloro-3-[2-chloro-4-(2-phenylethynyl)phenyl]-1-methyl-quinazoline-2,4-dione], for which the EC50 came out at 220 nM and the “Eff. (%)” value came to 120%.

Turning to `CC(C)n1c(=O)n(-c2c(F)cc(C#Cc3cccnc3)cc2Cl)c(=O)c2nn(C)cc21` [Example 58, 6-[2-Chloro-6-fluoro-4-[2-(3-pyridyl)ethynyl]phenyl]-4-isopropyl-2-methyl-pyrazolo[4,3-d]pyrimidine-5,7-dione], the 50% effective concentration (EC50) was 37 nM and the “Eff. (%)” value is 120%.

`O=c1c2cccc3c2n(c(=O)n1-c1c(F)cc(C#Cc2cccnc2)cc1F)CC3` [Example 30, 2-(2,6-Difluoro-4-(pyridin-3-ylethynyl)phenyl)-5,6-dihydro-1H-pyrrolo[3,2,1-ij]quinazoline-1,3(2H)-dione]: the EC50 is 91 nM and the “Eff. (%)” value worked out at 89%.

In the case of `Cn1ncc2c1c(=O)n(-c1c(F)cc(C#Cc3ccccc3)cc1F)c(=O)n2C` [Example 34, 6-[2,6-Difluoro-4-(2-phenylethynyl)phenyl]-1,4-dimethyl-pyrazolo[4,3-d]pyrimidine-5,7-dione], the EC50 came to 74 nM and the “Eff. (%)” value was found to be 85%.

For `Cn1c(=O)n(-c2c(F)cc(C#Cc3ccccc3)cc2F)c(=O)c2ccccc21` [Example 23, 3-[2,6-Difluoro-4-(2-phenylethynyl)phenyl]-1-methyl-quinazoline-2,4-dione], the EC50 was 203 nM and the “Eff. (%)” value is given as 168%.

`Cn1c(=O)n(-c2ccc(C#Cc3ccccc3)cc2Cl)c(=O)c2ncccc21` [Example 9, 3-[2-Chloro-4-(2-phenylethynyl)phenyl]-1-methyl-pyrido[3,2-d]pyrimidine-2,4-dione]: the EC50 is 308 nM and the “Eff. (%)” value stood at 167%.

On to `CC(C)n1c(=O)n(-c2ccc(C#Cc3cccnc3)cc2Cl)c(=O)c2nccnc21` [Example 22, 3-[2-Chloro-4-[2-(3-pyridyl)ethynyl]phenyl]-1-isopropyl-pteridine-2,4-dione], for which the EC50 came out at 167 nM and the “Eff. (%)” value was determined as 88%.

In the case of `CC(C)n1c(=O)n(-c2c(F)cc(C#Cc3ccccc3)cc2F)c(=O)c2nsnc21` [Example 40, 6-[2,6-Difluoro-4-(2-phenylethynyl)phenyl]-4-isopropyl-[1,2,5]thiadiazolo[3,4-d]pyrimidine-5,7-dione], the EC50 was determined as 23 nM and the “Eff. (%)” value was 104%.

On to `Cn1c(=O)n(-c2ccc(C#Cc3ccccc3)cc2Cl)c(=O)c2nccnc21` [Example 15, 3-[2-Chloro-4-(2-phenylethynyl)phenyl]-1-methyl-pteridine-2,4-dione], for which the EC50 was 110 nM and the “Eff. (%)” value is reported as 111%.

Take `Cn1c(=O)n(-c2c(F)cc(C#Cc3ccccc3)cc2F)c(=O)c2scnc21` [Example 32, 6-[2,6-Difluoro-4-(2-phenylethynyl)phenyl]-4-methyl-thiazolo[4,5-d]pyrimidine-5,7-dione]: the EC50 was 33 nM and the “Eff. (%)” value was 104%.

Consider `CCc1cccc2c(=O)n(-c3ccc(C#Cc4ccccc4)cc3Cl)c(=O)n(C)c12` [Example 8, 3-[2-Chloro-4-(2-phenylethynyl)phenyl]-8-ethyl-1-methyl-quinazoline-2,4-dione], for which the EC50 was found to be 65 nM and the “Eff. (%)” value is 100%.

For `CC(C)n1c(=O)n(-c2ccc(C#Cc3ccccc3)cc2Cl)c(=O)c2nccnc21` [Example 21, 3-[2-Chloro-4-(2-phenylethynyl)phenyl]-1-isopropyl-pteridine-2,4-dione], the EC50 was found to be 52 nM and the “Eff. (%)” value is reported as 89%.

In the case of `Cn1c(=O)n(-c2c(F)cc(C#Cc3ccccc3)cc2F)c(=O)c2nsnc21` [Example 39, 6-[2,6-Difluoro-4-(2-phenylethynyl)phenyl]-4-methyl-[1,2,5]thiadiazolo[3,4-d]pyrimidine-5,7-dione], the EC50 was determined as 17 nM and the “Eff. (%)” value was found to be 107%.

For the molecule `CC(C)n1c(=O)n(-c2c(F)cc(C#Cc3ccccc3)cc2F)c(=O)c2c1cnn2C` [Example 36, 6-[2,6-Difluoro-4-(2-phenylethynyl)phenyl]-4-isopropyl-1-methyl-pyrazolo[4,3-d]pyrimidine-5,7-dione], the EC50 was determined as 155 nM and the “Eff. (%)” value was 89%.

Take `O=c1c2cccc3c2n(c(=O)n1-c1c(F)cc(C#Cc2ccccc2)cc1F)CC3` [Example 29, 2-(2,6-Difluoro-4-(phenylethynyl)phenyl)-5,6-dihydro-1H-pyrrolo[3,2,1-ij]quinazoline-1,3(2H)-dione]: the EC50 turned out to be 52 nM and the “Eff. (%)” value is listed as 78%.

Take `O=c1c2ccccc2n(C2CCC2)c(=O)n1-c1ccc(C#Cc2ccccc2)cc1Cl` [Example 53, 3-[2-Chloro-4-(2-phenylethynyl)phenyl]-1-cyclobutyl-quinazoline-2,4-dione]: the concentration for a half-maximal effect (EC50) was 102 nM and the “Eff. (%)” value came to 123%.

In the case of `Cc1cccc2c(=O)n(-c3ncc(C#Cc4ccccc4)cc3F)c(=O)n(C)c12` [Example 49, 3-[3-Fluoro-5-(2-phenylethynyl)-2-pyridyl]-1,8-dimethyl-quinazoline-2,4-dione], the EC50 was found to be 302 nM and the “Eff. (%)” value is 111%.

Regarding `Cn1c(=O)n(-c2c(F)cc(C#Cc3ccccc3)cc2F)c(=O)c2cccc(OCC(F)F)c21` [Example 74, 8-(2,2-Difluoroethoxy)-3-[2,6-difluoro-4-(2-phenylethynyl)phenyl]-1-methyl-quinazoline-2,4-dione], the 50% effective concentration (EC50) stood at 60 nM and the “Eff. (%)” value is 122%.

For `Cn1c(=O)n(-c2ccc(C#Cc3ccccc3)cc2Cl)c(=O)c2cccc(Cl)c21` [Example 3, 8-Chloro-3-[2-chloro-4-(2-phenylethynyl)phenyl]-1-methyl-quinazoline-2,4-dione], the half-maximal effective concentration (EC50) amounted to 137 nM and the “Eff. (%)” value is listed as 93%.

Consider `O=c1c2ccccc2n(C2COC2)c(=O)n1-c1c(F)cc(C#Cc2ccccc2)cc1F` [Example 66, 3-[2,6-Difluoro-4-(2-phenylethynyl)phenyl]-1-(oxetan-3-yl)quinazoline-2,4-dione], for which the concentration for a half-maximal effect (EC50) came out at 75 nM and the “Eff. (%)” value is on record as 184%.

For the molecule `Cn1c(=O)n(-c2ccc(C#Cc3ccccc3)cc2Cl)c(=O)c2ccc(F)c(F)c21` [Example 19, 3-[2-Chloro-4-(2-phenylethynyl)phenyl]-7,8-difluoro-1-methyl-quinazoline-2,4-dione], the EC50 was 134 nM and the “Eff. (%)” value was found to be 73%.
